Earlier results, collected in PubChem BioAssay AID1259409 (Chemical Carcinogenesis Research Information System (CCRIS), 2018).

Tested on: rodent chemically induced tumor inhibition, incidence and multiplicity
Assay: CCRIS tumor inhibitor studies
Conditions: Promoter: NONE USED

SMILES | tumour outcome (control, treated, inhibition, significance) (Carcinogen: N-BUTYL-N-(4-HYDROXYBUTYL)NITROSAMINE, 3817-11-6, Dose [Inhibitor]: 0.5 ML (2000 UG/ML) INSTILLED TRANSURETHRALLY 2/WK FOR 2 WK POST CARCINOGEN DOSE (STUDY DURATION: 20 WK), Route [Inhibitor]: INTRAVESICAL, Species: RAT, Strain/Sex: WISTAR/MALE, Target Tissue: Type of Lesion: BLADDER: CARCINOMA, Dose [Carcinogen]: 0.05% IN DRINKING WATER FOR 12 WK) | tumour outcome (control, treated, inhibition, significance) (Carcinogen: N-BUTYL-N-(4-HYDROXYBUTYL)NITROSAMINE, 3817-11-6, Dose [Inhibitor]: 0.5 ML (2000 UG/ML) INSTILLED TRANSURETHRALLY 2/WK FOR 2 WK POST CARCINOGEN DOSE (STUDY DURATION: 20 WK), Route [Inhibitor]: INTRAVESICAL, Species: RAT, Strain/Sex: WISTAR/MALE, Target Tissue: Type of Lesion: BLADDER: PAPILLOMA, Dose [Carcinogen]: 0.05% IN DRINKING WATER FOR 12 WK) | tumour outcome (control, treated, inhibition, significance) (Carcinogen: N-BUTYL-N-(4-HYDROXYBUTYL)NITROSAMINE, 3817-11-6, Dose [Inhibitor]: 2000 UG/ML INSTILLED CONTINUOUSLY FOR 2 WK POST CARCINOGEN DOSE (STUDY DURATION: 12 WK), Route [Inhibitor]: INTRAVESICAL, Species: RAT, Strain/Sex: WISTAR/MALE, Target Tissue: Type of Lesion: BLADDER: CARCINOMA, Dose [Carcinogen]: 0.05% IN DRINKING WATER FOR 12 WK) | tumour outcome (control, treated, inhibition, significance) (Carcinogen: N-BUTYL-N-(4-HYDROXYBUTYL)NITROSAMINE, 3817-11-6, Dose [Inhibitor]: 2000 UG/ML INSTILLED CONTINUOUSLY FOR 2 WK POST CARCINOGEN DOSE (STUDY DURATION: 12 WK), Route [Inhibitor]: INTRAVESICAL, Species: RAT, Strain/Sex: WISTAR/MALE, Target Tissue: Type of Lesion: BLADDER: PAPILLOMA, Dose [Carcinogen]: 0.05% IN DRINKING WATER FOR 12 WK) | tumour outcome (control, treated, inhibition, significance) (Carcinogen: 4-(METHYLNITROSAMINO)-1-(3-PYRIDYL)-1-BUTANONE, 64091-91-4, Dose [Inhibitor]: 0, 25 UMOL IN 0.1 ML CORN OIL ONCE 2 HR PRIOR TO CARCINOGEN DOSE (STUDY DURATION: 16 WK), Route [Inhibitor]: GAVAGE, Species: MOUSE, Strain/Sex: STRAIN-A/FEMALE, Target Tissue: Type of Lesion: LUNG: ADENOMA, Dose [Carcinogen]: 10 UMOL IN 0.1 ML SALINE ONCE) | tumour outcome (control, treated, inhibition, significance) (Carcinogen: 4-(METHYLNITROSAMINO)-1-(3-PYRIDYL)-1-BUTANONE, 64091-91-4, Dose [Inhibitor]: 0, 25 UMOL IN 0.1 ML CORN OIL ONCE 2 HR PRIOR TO CARCINOGEN DOSE (STUDY DURATION: 16 WK), Route [Inhibitor]: GAVAGE, Species: MOUSE, Strain/Sex: STRAIN-A/FEMALE, Target Tissue: Type of Lesion: LUNG: TUMOR, Dose [Carcinogen]: 10 UMOL IN 0.1 ML SALINE ONCE)
CO[C@@]12[C@H](COC(N)=O)C3=C(C(=O)C(C)=C(N)C3=O)N1C[C@@H]1N[C@@H]12 | 14/20 (70%), 8/10 (80%), -14%, not calculated | 6/20 (30%), 2/10 (20%), 33%, not calculated | 14/20 (70%), 2/10 (20%), 71%, not calculated | 6/20 (30%), 2/10 (20%), 33%, not calculated |  | 
CC(O)CCC(=O)c1ccccc1 (stereo unspecified) |  |  |  |  | 100%, 95%, 5%, not significant | 100%, 100%, 0%, not significant
